Experiment: Human HepG2 cell viability assay in 384 well format
Format: toxicity, cell-based
Set-up: dose 125 nL, time 70.5 hour; cytotoxicity at 70.5 h: concentration not given beside the values
Settings: HepG2 cells, read-out: Inhibition

| SMILES | cytotoxicity at 70.5 h [%] |
| --- | --- |
| CCc1ccc(NC(=O)CCN2CC(n3nc(C)cc3C)C2)cc1 | -1.14 |
| NCc1ccnc(Oc2ccc(F)cc2)c1 | -17 |
| O=C(c1ccco1)N1CCc2c(nc(-c3ccncc3)[nH]c2=O)C1 | 13 |
| Cc1nn(C)c2c(N(C)Cc3ccco3)nc(C3CC3)nc12 | 15.5 |
| CC(=O)NCCn1ccnc1-c1cccc(C(C)N(C)C)c1 (stereo not drawn) | 5.57 |
| Cc1ccc(N2CCCC(NCC(=O)NC3CCOCC3)C2)nn1 (stereo not drawn) | -3.6 |
| CCN1CCN(C(=O)C2CCCc3[nH]ncc32)CC1 (stereo not drawn) | 1.54 |
| COc1ccc(-n2cnnc2SCC(=O)NC(C)C)cn1 | -3.19 |
| Cc1cc(N(C)CCOc2ccccc2F)nc(N)n1 | -2.43 |
| CC(=O)Nc1ccc(SCC(O)COCc2ccc3c(c2)OCO3)cc1 (stereo not drawn) | -4.91 |
| O=C(c1cscn1)N1CC[C@@H]2[C@@H]1CCN2C1CCOC1 (stereo partly drawn) | -1.49 |
| O=C1CCCCN1CCCC(=O)N1CCC2(CC1)[C@H](O)C[C@@H]2O | -4.17 |
| O=C(NCc1ccccn1)[C@]12COC[C@H]1CN(Cc1ccsc1)C2 | -0.962 |
| CCN(Cc1nc2c(cnn2C)c(=O)[nH]1)Cc1ccccc1Cl | 0.498 |
| O=C(NCCCN1CCOCC1)c1ccn(COc2ccccc2)n1 | -7.55 |
| NC(=O)c1cc(C2CCCN(C(=O)CCc3cscn3)C2)n[nH]1 (stereo not drawn) | -11.7 |
| Fc1cnc(N2CCCn3c(CN4CCOCC4)nnc3C2)nc1 | 25.5 |
| CNc1ccc(CC2CCCN(C(=O)c3cnc(C)nc3)C2)nn1 (stereo not drawn) | -6.58 |
| CCn1ncc2c1C(COC)N(C(=O)c1ccc3c(c1)OCO3)CC2 (stereo not drawn) | -5.04 |
| O=C(O)C1CCN(C(=O)CCn2ccc3cc(Br)ccc32)CC1 | -15.9 |
| Cc1nn(C)c(N2CCOCC2)c1CNC(C)c1cccnc1 (stereo not drawn) | -8.78 |
| Cc1cccc(C2(CNC(=O)C(C)NC(N)=O)CCCC2)c1 (stereo not drawn) | 4.08 |
| Cc1cccc(CN(Cc2ccc(C)o2)C2CC(C)(C)NC(C)(C)C2)n1 | -9.61 |

| SMILES | cytotoxicity at 70.5 h [%] |
| --- | --- |
| COCC(=O)N1CCc2ccc(=O)n(Cc3csc(C)n3)c2CC1 | -6.47 |
| Cc1nnc(CN(Cc2ccccc2Cl)C2CCCC2)o1 | -5.33 |
| CS(=O)(=O)N1CCC2(CCN(C(=O)c3cccs3)CC2)CC1 | -8.9 |
| c1ccc(Cn2ccnc2CN2CCCC2c2noc(C3CC3)n2)cc1 (stereo not drawn) | 8.17 |
| CCc1nc(NS(=O)(=O)c2cc(C)ccc2F)no1 | -8.12 |
| Cc1cccc2c1NC(c1cnc(C3CCC3)s1)NC2=O (stereo not drawn) | -18.5 |
| CC(C)Cc1cc(NC(=O)c2ccc[nH]2)n(C)n1 | -11.1 |
| Cc1ccc(=O)n(CC2(O)CCN(Cc3cccs3)CC2)n1 | -8.17 |
| CCC(CO)N(Cc1ccco1)C(=O)c1cccnc1NC (stereo not drawn) | -2.71 |
| CCOCC(O)CN1CCN(C(=O)c2ccnc(N(C)C)c2)CC1 (stereo not drawn) | -6.8 |
| Cc1nn(C)cc1-c1cc(C(F)(F)F)nn1CCC#N | -1.92 |
| CN(Cc1ccncc1)C(=O)Nc1cnn(CC2CCCO2)c1 (stereo not drawn) | -3.42 |
| CSCC(=O)N1CCCN(c2ccccc2C)CC1 | -4.65 |
| Cc1cnc(CN(C)C2CCN(CC(=O)Nc3c(C)n[nH]c3C)C2)o1 (stereo not drawn) | 11.7 |
| CCc1nnc2n1CCN(C(=O)c1ccc3nc(C)c(C)nc3c1)C2 | 1.25 |
| Cn1cc(CN2CCC(CCC(=O)NC3CC3)CC2)cn1 | 0.934 |
| CCCNC(=O)c1cc2c(s1)CCN2C(=O)CN(C)C | -14.4 |
| CC(C)c1cc(CN2CCN(c3cccnc3)CC2)n(C)n1 | 5.33 |
| O=C(c1cnccn1)N1C[C@@H](c2ccccc2)[C@@]2(CCNC2=O)C1 | -4.45 |
| COCCN(Cc1nccs1)c1nc2c(s1)c(C)nn2C | -10.8 |
| O=C1CCCN1CCCNCc1cc(O)c2cccc(Cl)c2n1 | 21 |
| CC1=C[C@@H](CC#N)[C@H](C(C)C)C[C@H]1CC(=O)N1CCN(C)CC1 | 13.1 |
| Cc1cc(F)ccc1S(=O)(=O)N1C[C@@H](C)[C@@](C)(O)C1 | -3.25 |

| SMILES | cytotoxicity at 70.5 h [%] |
| --- | --- |
| CCC(C(=O)NC1CCCCC1)n1cccc(OC)c1=O (stereo not drawn) | -1.81 |
| CC(=O)N1CCC(c2nn(C)c(=O)n2-c2ccccc2)CC1 | -1.32 |
| CCN(CC)S(=O)(=O)NCC(O)c1c(Cl)cccc1Cl (stereo not drawn) | 8.36 |
| Cc1cc(C(=O)N2CCC(n3nc(C)cc3C)C2)c2ccc(F)cc2n1 (stereo not drawn) | -9.21 |
| Cc1ccnc(SCC(=O)Nc2csc3nc(=O)c(C)nn23)n1 | 7.67 |
| CC(C)CN1CCN(C(=O)Nc2cc(C(F)(F)F)c[nH]c2=O)CC1 | -17.9 |
| c1cncc(CN2Cc3nccn3CC(Cn3cncn3)C2)c1 (stereo not drawn) | 0.12 |
| COCCN1CCC(c2nc3ccc(NC(C)C)cn3n2)CC1 | -17.4 |
| N#Cc1cccc(-c2ncnn2CC2(O)CCCCC2)c1 | -3.16 |
| O=C(NC1CCCCC1)N1CCC(n2cc(-c3ccccn3)nn2)CC1 | -6.7 |
| COCC(=O)N1CCC(=O)N(C2CCCC2)Cc2ccccc21 | 6.82 |
| CC(C)c1n[nH]c(C2CN(Cc3nnc(C4CC4)n3C)CCO2)n1 (stereo not drawn) | -7.72 |
| Cn1ccc2c(C(=O)N3CCCC3c3noc(C4CC4)n3)cccc21 (stereo not drawn) | -1.84 |
| CN(Cc1cc(C2CC2)on1)C(=O)CN1C(=O)OC(C)(C)C1=O | 0.377 |
| c1cncc(OC[C@]23COC[C@H]2CN(Cc2nccs2)C3)c1 | -120 |
| Cc1cnc(C(=O)N2CCC3(CCCN(c4nncs4)C3)C2)cn1 (stereo not drawn) | -0.974 |
| Cc1cc(NC(=O)C(C)N2CCN(c3ccc(C#N)cc3F)CC2)no1 (stereo not drawn) | -11.7 |
| COc1ccc(CN2CCC3(CC(Nc4ccncn4)C3)C2)c(OC)c1 (stereo not drawn) | -6.97 |
| CC(C)c1nnc2ccc(N3CCC(C(=O)Nc4nccs4)CC3)nn12 | 10.7 |
| CC(C)N1CCCC(Cc2cncc(Br)c2)CC1 (stereo not drawn) | -4.98 |
| CC1=NN(c2ccc(C(=O)N3CCCC(n4ccnc4)C3)cc2)CC1 (stereo not drawn) | -17.1 |
| Cc1ccc(CNC(=O)CCN2CCOC(C(F)(F)F)C2)cc1 (stereo not drawn) | -2.06 |
| Cc1nc(CN(C)C2CCN(Cc3cccc4cccnc34)C2)no1 (stereo not drawn) | 34 |

| SMILES | cytotoxicity at 70.5 h [%] |
| --- | --- |
| CCN(Cc1ccoc1)C(C(N)=O)c1ccc(C#N)cc1 (stereo not drawn) | -1.21 |
| CN(C)S(=O)(=O)N1CC(c2ccnc(Nc3ccccn3)n2)C1 | -5.03 |
| COc1cc(N2C[C@@H]3COC[C@]3(C(=O)NCc3ccccn3)C2)ncn1 | -3.03 |
| Cc1cc(-c2ccc(=O)n(C3CCN(C(=O)C4CC4)CC3)n2)c(C)o1 | -2.33 |
| CCc1ccc(C(=O)O)cc1S(=O)(=O)N(C)c1cccc(C#N)c1 | -6.98 |
| O[C@@H]1CN(c2nc3ccccc3o2)CC[C@H]1c1ccc2c(c1)OCO2 | 14.9 |
| CCc1nnc2ccc(N3CCN(S(=O)(=O)c4ccc(Cl)s4)CC3)nn12 | -19 |
| CC(C)CCn1cc(C(=O)NC2CCS(=O)(=O)C2)c2ccccc2c1=O (stereo not drawn) | -12.4 |
| COCC(=O)N1Cc2nccn2CC(COc2cccnc2)C1 (stereo not drawn) | -14.4 |
| O=C(c1cc(C2CC2)[nH]n1)N1CCN(Cc2ccncc2)CC1 | -11.9 |
| CN(Cc1nccn1C)c1ccc(-c2nccn2C)nn1 | 18.2 |
| CC(c1ccco1)N(C(=O)c1cccc(C#N)c1)C1CC1 (stereo not drawn) | -5.03 |
| NC(=O)C1CCN(c2nc3nccc(-c4ccncc4)c3c(=O)[nH]2)CC1 | -1.26 |
| CCCNC(=O)c1cccc(CNCc2csc(C(C)(C)C)n2)c1 | -44.8 |
| Cc1cnn(CC2CCCCN2C(=O)c2nccnc2N)c1 (stereo not drawn) | -4.52 |
| CC(=O)Nc1ccc(CNCC(O)c2ccc(C)cc2)cc1 (stereo not drawn) | -8.81 |
| COc1ccc(CC(=O)N2CCC(Nc3ccc(C)nn3)CC2)cc1 | -3.12 |
| OC1CCN(C2CCN(c3ccc(Cn4ccnc4)cn3)CC2)CC1 | -17.9 |
| CN(C)Cc1cn2c(n1)CN(C1CCOC1)CC2 (stereo not drawn) | -1.23 |
| c1cnc(N2CCC(c3csc(Nc4cnccn4)n3)CC2)nc1 | 12.4 |
| O=C(NCCc1cccs1)[C@]12COC[C@H]1CN(Cc1ccncc1)C2 | -9.54 |
| CCc1cnc(CNC(=O)NC2CCN(C3CCCC3)CC2)s1 | 14 |
| Cc1ncsc1CN(C)C(=O)C(CC(C)C)N1CCCCC1=O (stereo not drawn) | -2.15 |

| SMILES | cytotoxicity at 70.5 h [%] |
| --- | --- |
| CCC(C)(C)NC(=O)CN1C=Nc2ccccc2S1(=O)=O | -5.89 |
| CC1(C)CCN(Cc2ccccc2-c2nc(C(C)(C)C)cc(=O)[nH]2)C1 | -4.72 |
| COc1ccc(C(=O)N2CC[C@@H]3[C@H](CC2)N(C)CCS3(=O)=O)cc1 | -7.15 |
| CN(Cc1nc(-c2cccnc2)no1)C(=O)c1cccn1C | 53.7 |
| N#Cc1cccc(CN2CC[C@@H]3CO[C@@H](CN4CCCC4)[C@@H]3C2)c1 | -4.24 |
| CCS(=O)(=O)N1CCOC2(CCCN(c3cccc(C#N)c3)C2)C1 (stereo not drawn) | -5.28 |
| O=C(COC1CCCC1)NCCc1nc(-c2ccccn2)cs1 | -3.01 |
| CCc1ocnc1C(=O)N1CCCC1c1noc(C(C)C)n1 (stereo not drawn) | -11 |
| O=C1CCC(=O)N1c1nn(Cc2cccc(F)c2)cc1Cl | -0.348 |
| CCCC(=O)N1CCC(O)(Cn2c(CC)nc3ccccc3c2=O)CC1 | -16.7 |
| CC(=O)Nc1cccc(-c2ccccc2CCN)c1 | -1.04 |
| Cc1cnn(CCNCc2cc(C#N)ccc2F)c1 | 18.7 |
| Cn1ccnc1CN1CCc2c(COCC3CC3)nn(C)c2C1 | -6.3 |
| O=C(NCC[S+]([O-])c1ccccc1)NCC(F)(F)F (stereo not drawn) | -7.27 |
| Cc1cnn(CC2CCCN2C(=O)Cc2ccc(C)nc2)c1 (stereo not drawn) | -7.79 |
| COCC(C)NC(=O)c1cn(C(C)C)cc2c(=O)[nH]nc1-2 (stereo not drawn) | -6.59 |
| CCC(CNC(=O)c1nc(=O)[nH][nH]1)Oc1cccc(F)c1 (stereo not drawn) | 0.426 |
| Cc1cc(C)c2cc(C(=O)N3CCNC(=O)C3)[nH]c2c1 | -8 |
| Cc1cc2nc(SCC(=O)N3CCOCC3)n(CC(C)C)c(=O)c2[nH]1 | -7.46 |
| Cc1noc(C)c1CN1C[C@H](C)[C@]2(CCN(Cc3cccnc3)C2=O)C1 | -8.9 |
| CNc1cc(N2CCCC2CNCc2cccc(C(N)=O)c2)ncn1 (stereo not drawn) | -2.53 |
